From US20240043395A1, “COMPOUNDS AND COMPOSITIONS AS MODULATORS OF TLR SIGNALING” (Neuropore Therapies, Inc., priority 2020, published 2024)

What was measured:
human TLR2 [1] = target: T1, human TLR2 (Homo sapiens (Human), UniProt O60603); test: HEK-Blue hTLR2 antagonism assay (SEAP reporter), agonist Pam2CSK4; type: cell-based; details: HEK-Blue hTLR2 cells; Pam2CSK4 (TLR2/6 agonist) at approx. 3×EC50; 18 h; 8-point dilutions
Procedure: (§1) Synthetic diacylated lipoprotein (Pam2CSK4, TLR2/6 agonist) and synthetic triacylated lipoprotein (Pam3CSK4, TLR1/2 agonist) were obtained from InvivoGen and were dissolved in endotoxin-free water to a concentration 1 mg/mL, vortexed until complete solubilization, and stored in aliquots at −20° C. Prior to addition to cells, an aliquot of the dissolved ligand was vortexed shortly and then was diluted in medium to 25 ng/mL Pam2CSK4 or 1000 ng/mL Pam3CSK4.
(§2) Test compounds were solubilized fresh to 10-20 mM stocks in DMSO and sonicated for 5-10 minutes in a water bath sonicator. Serial dilutions were prepared in DMSO, and then diluted in medium. The final concentration of DMSO used in the assay was 1%.
(§3) HEK-Blue hTLR2 reporter cells (InvivoGen) are HEK-293 cells stably expressing both the human TLR2 gene and a secreted embryonic alkaline phosphatase (SEAP) reporter construct downstream of NFκB promotor sites. HEK-Blue hTLR2 reporters were cultured according to manufacturer's protocol using Dulbecco's Modified Eagle Medium (DMEM; Gibco) containing 1× GlutaMax (Gibco), 10% heat-inactivated Fetal Bovine Serum (Gibco), Pen-Strep (50 U/mL penicillin, 50 μg/mL streptomycin, Gibco), 100 μg/mL Normocin (InvivoGen), and the selective antibiotic, lx HEK-Blue Selection (InvivoGen). Quanti-Blue reagent (InvivoGen) for detection and quantification of secreted alkaline phosphatase was dissolved in 100 mL of endotoxin-free water, warmed to 37° C. for 30 minutes and then filtered using a 0.2 μm membrane.
(§4) On day 1, 50 μL of each test compound dilution in duplicates or a vehicle control was added to each well of a 96-well plate followed by addition of 150 μL of HEK-Blue hTLR2 cell suspension (1×10^5 cells/well) and incubated at 37° C./5% CO2 for 2 h. Next, 50 μL of an approximate 3×EC50 concentration of each agonist (Pam2CSK4 or Pam3CSK4) was added to the wells containing test compounds or the vehicle control. The plates were then incubated at 37° C./5% CO2 for 18 h. For each assay run, non-treated HEK-Blue hTLR2 cells were treated with serial dilutions of agonists to determine EC50 values for the respective run.
(§5) On day 2, secreted alkaline phosphatase (SEAP) activity was detected in cell culture supernatants. In brief, 20 μL was collected from each well and transferred to a 96-well plate. Next, 200 μL of Quanti-Blue detection reagent was added to each well. Plates were incubated at room temperature for 15 min and SEAP activity was assessed by spectrophotometer OD reading at 655 nm. […] IC50 values were calculated based on 8-point dilutions for each compound.

human TLR2 [2] = target: T1, human TLR2; test: HEK-Blue hTLR2 antagonism assay (SEAP reporter), agonist Pam3CSK4; type: cell-based; details: HEK-Blue hTLR2 cells; Pam3CSK4 (TLR1/2 agonist) at approx. 3×EC50; 18 h; 8-point dilutions
Procedure: as §1, §2, §3, §4, §5

T1 sequence (O60603 21-784): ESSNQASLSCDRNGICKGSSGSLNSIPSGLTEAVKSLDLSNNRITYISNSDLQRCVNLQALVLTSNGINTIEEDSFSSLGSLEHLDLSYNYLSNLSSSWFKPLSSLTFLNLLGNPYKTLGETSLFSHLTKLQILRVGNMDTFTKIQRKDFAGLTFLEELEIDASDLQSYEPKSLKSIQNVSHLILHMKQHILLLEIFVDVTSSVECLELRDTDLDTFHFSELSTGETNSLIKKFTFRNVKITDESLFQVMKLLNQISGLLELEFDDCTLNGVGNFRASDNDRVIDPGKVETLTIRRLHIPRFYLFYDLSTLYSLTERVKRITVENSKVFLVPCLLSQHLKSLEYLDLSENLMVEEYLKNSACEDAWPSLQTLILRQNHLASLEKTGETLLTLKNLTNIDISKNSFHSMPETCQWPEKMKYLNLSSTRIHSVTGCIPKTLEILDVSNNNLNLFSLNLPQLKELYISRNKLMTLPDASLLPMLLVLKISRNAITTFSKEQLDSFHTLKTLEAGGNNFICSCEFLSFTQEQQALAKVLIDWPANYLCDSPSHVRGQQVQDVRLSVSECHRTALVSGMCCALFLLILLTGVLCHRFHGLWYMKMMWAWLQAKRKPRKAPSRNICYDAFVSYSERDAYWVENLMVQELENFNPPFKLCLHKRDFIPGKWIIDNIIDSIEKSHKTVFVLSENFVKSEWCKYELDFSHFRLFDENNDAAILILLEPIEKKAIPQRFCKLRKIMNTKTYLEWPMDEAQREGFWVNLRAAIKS

Structure (SMILES)	IC50 (human TLR2 [1])	IC50 (human TLR2 [2])
O=Cc1cc(C(=O)Nc2coc(-c3ccccc3)n2)cc(F)c1O [Compound 15, 3-fluoro-5-formyl-4-hydroxy-N-(2-phenyloxazol-4-yl)benzamide]	4.1 µM	0.9 µM
O=Cc1cc(-c2scnc2-c2ccccc2)cc(F)c1O [Compound 18, 3-fluoro-2-hydroxy-5-(4-phenylthiazol-5-yl)benzaldehyde]	22.2 µM	20.3 µM
O=Cc1cc(C(=O)N2CCC(c3ccc(N4CCCC4)cc3)CC2)cc(F)c1O [Compound 34, 3-fluoro-2-hydroxy-5-(4-(4-(pyrrolidin-1-yl)phenyl)piperidine-1-carbonyl)benzaldehyde]	0.9 µM	0.4 µM
O=Cc1cc(C(=O)N2CCC(c3cccc(N4CCCC4)c3)CC2)cc(F)c1O [Compound 35, 3-fluoro-2-hydroxy-5-(4-(3-(pyrrolidin-1-yl)phenyl)piperidine-1-carbonyl)benzaldehyde]	13.8 µM	8 µM
O=Cc1cc(C(=O)N2CCC(c3ccc(N4CCCC4)nc3)CC2)cc(F)c1O [Compound 37, 3-fluoro-2-hydroxy-5-(4-(6-(pyrrolidin-1-yl)pyridin-3-yl)piperidine-1-carbonyl)benzaldehyde]	6.2 µM	4.8 µM
O=Cc1cc(C(=O)N2CCC(c3ccc(N4CCCC4)cc3)C2)cc(F)c1O (stereo not drawn) [Compound 82, 3-fluoro-2-hydroxy-5-(3-(4-(pyrrolidin-1-yl)phenyl)pyrrolidine-1-carbonyl)benzaldehyde]	8.4 µM	3.5 µM
O=Cc1cc(C(=O)N2CC(c3ccc(N4CCCC4)cc3)C2)cc(F)c1O [Compound 84, 3-fluoro-2-hydroxy-5-(3-(4-(pyrrolidin-1-yl)phenyl)azetidine-1-carbonyl)benzaldehyde]	6.2 µM	3.8 µM
O=Cc1cc(C(=O)Nc2ccc(N3CCCC3)nn2)cc(F)c1O [Compound 92, 3-fluoro-5-formyl-4-hydroxy-N-(6-(pyrrolidin-1-yl)pyridazin-3-yl)benzamide]	59 µM	39 µM
O=Cc1cc(C(=O)N2CCCN(c3cccc(N4CCCC4)c3)CC2)cc(F)c1O [Compound 98, 3-fluoro-2-hydroxy-5-(4-(3-(pyrrolidin-1-yl)phenyl)-1,4-diazepane-1-carbonyl)benzaldehyde]	15.1 µM	18.1 µM
O=Cc1cc(C(=O)NCCc2ccc(N3CCCC3)cc2)cc(F)c1O [Compound 143, 3-fluoro-5-formyl-4-hydroxy-N-(4-(pyrrolidin-1-yl)phenethyl)benzamide]	17 µM	12.3 µM
O=Cc1cc(-c2nc(-c3ccc(N4CCCC4)cc3)ns2)cc(F)c1OC(=O)OC1CCOC1 (stereo not drawn) [Compound 162, 2-fluoro-6-formyl-4-(3-(4-(pyrrolidin-1-yl)phenyl)-1,2,4-thiadiazol-5-yl)phenyl tetrahydrofuran-3-yl carbonate]	11.5 µM	4.3 µM
O=Cc1cc(-c2nc(-c3ccc(N4CC(F)(F)C4)cc3)ns2)cc(F)c1O [Compound 169, 5-(3-(4-(3,3-difluoroazetidin-1-yl)phenyl)-1,2,4-thiadiazol-5-yl)-3-fluoro-2-hydroxybenzaldehyde]	2.5 µM	1.3 µM
CN(C)C(=O)Oc1c(F)cc(-c2nc(-c3ccc(N4CCCC4)cc3)ns2)cc1C=O [Compound 173, 2-fluoro-6-formyl-4-(3-(4-(pyrrolidin-1-yl)phenyl)-1,2,4-thiadiazol-5-yl)phenyl dimethylcarbamate]	0.9 µM	0.5 µM
CN1CCN(C(=O)Oc2c(F)cc(-c3nc(-c4ccc(N5CCCC5)cc4)ns3)cc2C=O)CC1 [Compound 175, 2-fluoro-6-formyl-4-(3-(4-(pyrrolidin-1-yl)phenyl)-1,2,4-thiadiazol-5-yl)phenyl 4-methylpiperazine-1-carboxylate]	1.2 µM	0.3 µM

Now from value to molecule:

IC50 (human TLR2 [1])	IC50 (human TLR2 [2])	Structure (SMILES)
1 µM	0.6 µM	O=Cc1cc(C(=O)Nc2ncc(-c3ccc(C(F)(F)F)cc3)s2)cc(F)c1O [Compound 115, 3-fluoro-5-formyl-4-hydroxy-N-(5-(4-(trifluoromethyl)phenyl)thiazol-2-yl)benzamide]
15.9 µM	7.9 µM	O=Cc1cc(C(=O)Nc2nc(-c3ccccc3)ns2)cc(F)c1O [Compound 121, 3-fluoro-5-formyl-4-hydroxy-N-(3-phenyl-1,2,4-thiadiazol-5-yl)benzamide]
0.7 µM	0.8 µM	COc1cc(-c2cnn(-c3ccc(C(F)(F)F)cc3)c2)cc(C=O)c1O [Compound 128, 2-hydroxy-3-methoxy-5-(1-(4-(trifluoromethyl)phenyl)-1H-pyrazol-4-yl)benzaldehyde]
0.7 µM	0.4 µM	O=Cc1cc(-c2cnc(-c3ccc(N4CCCC4)nc3)s2)ncc1O [Compound 129, 5-hydroxy-2-(2-(6-(pyrrolidin-1-yl)pyridin-3-yl)thiazol-5-yl)isonicotinaldehyde]
1.3 µM	0.8 µM	O=Cc1cc(-c2nc(-c3ccc(N4CCCC4)nc3)ns2)cc(F)c1O [Compound 130, 3-fluoro-2-hydroxy-5-(3-(6-(pyrrolidin-1-yl)pyridin-3-yl)-1,2,4-thiadiazol-5-yl)benzaldehyde]
14 µM	7.2 µM	O=Cc1cc(C(=O)N2CCN(c3ccc(N4CCCC4)nc3)CC2)cc(F)c1O [Compound 140, 3-fluoro-2-hydroxy-5-(4-(6-(pyrrolidin-1-yl)pyridin-3-yl)piperazine-1-carbonyl)benzaldehyde]
9.3 µM	5.3 µM	O=Cc1cc(C(=O)NCCCc2ccc(N3CCCC3)cc2)cc(F)c1O [Compound 144, 3-fluoro-5-formyl-4-hydroxy-N-(3-(4-(pyrrolidin-1-yl)phenyl)propyl)benzamide]
5.9 µM	2.25 µM	CN(C(=O)c1cc(F)c(O)c(C=O)c1)C12CC(c3ccccc3)(C1)C2 [Compound 158, 3-fluoro-5-formyl-4-hydroxy-N-methyl-N-(3-phenylbicyclo[1.1.1]pentan-1-yl)benzamide]
9.29 µM	4.39 µM	O=Cc1cc(COC(=O)Nc2cccc(N3CCCC3)c2)cc(F)c1O [Compound 159, 3-fluoro-5-formyl-4-hydroxybenzyl (3-(pyrrolidin-1-yl)phenyl)carbamate]
38.4 µM	26.5 µM	O=Cc1cc(C(=O)NNc2cccc(Br)c2)cc(F)c1O [Compound 160, N′-(3-bromophenyl)-3-fluoro-5-formyl-4-hydroxybenzohydrazide]
15.8 µM	9.6 µM	O=Cc1cc(C(=O)Nc2cnc(-c3ccnc(N4CCCC4)c3)s2)cc(F)c1O [Compound 168, 3-fluoro-5-formyl-4-hydroxy-N-(2-(2-(pyrrolidin-1-yl)pyridin-4-yl)thiazol-5-yl)benzamide]
17.7 µM	5.36 µM	NS(=O)(=O)c1ccc(-c2nsc(-c3cc(F)c(O)c(C=O)c3)n2)cc1 [Compound 170, 4-(5-(3-fluoro-5-formyl-4-hydroxyphenyl)-1,2,4-thiadiazol-3-yl)benzenesulfonamide]
2.52 µM	1.03 µM	O/N=C\c1cc(-c2nc(-c3ccc(N4CCCC4)cc3)ns2)cc(F)c1O [Compound 171, 3-fluoro-2-hydroxy-5-(3-(4-(pyrrolidin-1-yl)phenyl)-1,2,4-thiadiazol-5-yl)benzaldehyde oxime]
1 µM	0.5 µM	O=Cc1cc(-c2nc(-c3ccc(N4CCCC4)cc3)ns2)cc(F)c1OC(=O)N1CCCC1 [Compound 172, 2-fluoro-6-formyl-4-(3-(4-(pyrrolidin-1-yl)phenyl)-1,2,4-thiadiazol-5-yl)phenyl pyrrolidine-1-carboxylate]
1.5 µM	0.6 µM	O=Cc1cc(-c2nc(-c3ccc(N4CCCC4)cc3)ns2)cc(F)c1OC(=O)N1CCOCC1 [Compound 174, 2-fluoro-6-formyl-4-(3-(4-(pyrrolidin-1-yl)phenyl)-1,2,4-thiadiazol-5-yl)phenyl morpholine-4-carboxylate]
2 µM	0.6 µM	COCCOCC(=O)Oc1c(F)cc(-c2nc(-c3ccc(N4CCCC4)cc3)ns2)cc1C=O [Compound 176, 2-fluoro-6-formyl-4-(3-(4-(pyrrolidin-1-yl)phenyl)-1,2,4-thiadiazol-5-yl)phenyl 2-(2-methoxyethoxy)acetate]
